Measured values taken from US6407130B1, “Carboxamide-substituted benzimidazoles having tryptase-inhibiting activity” (Boehringer Ingelheim Pharma KG, priority 1999, dated 2002).
Structures can show the parent of a compound that is named as a salt.

Target: T1, rh beta tryptase (Homo sapiens, UniProt Q15661)
T1 construct: purchased Promega
Test: tryptase inhibition test (cleavage of N-p-tosyl-Gly-Pro-Lys-para-nitroaniline, p-nitroaniline measured at 405 nm)
Assay type: biochemical
Conditions: Tris HCl buffer pH 7.4 with calcium and heparin; substrate 0.6 mM; 5 minutes' pre-incubation, 5 minutes incubation at 37° C.
Protocol: The compounds according to the invention are characterised by their tryptase-inhibiting activity. This ability to inhibit tryptase was investigated using the test described as follows. The measurement is carried out in Tris HCl buffer (100 mM), which additionally contains calcium (5 mM) and heparin ([…]), at pH 7.4. The standard used is rh beta tryptase which may be obtained commercially from Promega, for example. The substrate used is N-p-tosyl-Gly-Pro-Lys-para-nitroaniline in a concentration of 0.6 mM. The substrate is digested with tryptase to form p-nitroaniline which can be measured at 405 nm. Usually, an incubation period of 5 minutes and an incubation temperature of 37° C. are chosen. The enzyme activity used is 0.91 U/ml. The measurements are carried out in an Autoanalyser (Cobas Bio) made by Hofmann LaRoche. The potential inhibitory substances are used in concentrations of 10 μM in the screening, the inhibition of the tryptase being given in percent. The IC50 is determined at over 70% inhibition (concentration at which 50% of the enzyme activity is inhibited). After 5 minutes' pre-incubation of the potential inhibitory substances, the substrate is added to start the reaction, the formation of p-nitroaniline being taken as a measurement of the enzyme activity after 5 minutes, after testing the linearity.

T1 sequence (Q15661 31-275): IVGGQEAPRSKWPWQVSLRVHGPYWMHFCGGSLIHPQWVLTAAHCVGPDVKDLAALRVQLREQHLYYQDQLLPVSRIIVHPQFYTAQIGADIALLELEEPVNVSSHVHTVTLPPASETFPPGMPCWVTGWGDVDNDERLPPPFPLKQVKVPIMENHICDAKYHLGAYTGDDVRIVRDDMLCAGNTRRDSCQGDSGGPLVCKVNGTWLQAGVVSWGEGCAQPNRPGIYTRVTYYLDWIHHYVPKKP

Row | Compound | IC50 [nM]
1 | Cn1c(CCc2ccc(C(=N)N)cc2)nc2cc(N(Cc3cccc4ccccc34)C(=O)Cc3cccc4ccccc34)ccc21 [Example 80, N-{2-[2-(4-Amidinophenyl)-ethyl]-1-methyl-benzimidazol-5-yl}-N-( - naphthylmethyl)-[2-( -naphthyl)-acetamide]-hydrochloride] | 30.1
2 | Cn1c(CCc2ccc(C(=N)N)cc2)nc2cc(N(Cc3cccc4ccccc34)C(=O)C=Cc3ccccn3)ccc21 [Example 67, N-{2-[2-(4-Amidinophenyl)-ethyl]-1-methyl-benzimidazol-5-yl}-N-( - naphthylmethyl)-[3-(pyridin-2-yl)-acrylamide]-hydrochloride] | 39
3 | CN(CC(=O)N(Cc1cccc2ccccc12)c1ccc2c(c1)nc(CCc1ccc(C(=N)N)cc1)n2C)Cc1ccccc1 [Example 63, N-{2-[2-(4-Amidinophenyl)-ethyl]-1-methyl-benzimidazol-5-yl}-N-( - naphthylmethyl)-[2-(N-benzyl-N-methylamino)-acetamide]-dihydrochloride] | 28
4 | Cn1c(CCc2ccc(C(=N)N)cc2)nc2cc(N(Cc3ccc4ccccc4c3)C(=O)CCCc3ccc(N)cc3)ccc21 [Example 55, N-{2-[2-(4-Amidinophenyl)-ethyl]-1-methyl-benzimidazol-5-yl}-N-(β-naphthylmethyl)-[4-(4-aminophenyl)-butyroamide]-dihydrochloride] | 172
5 | Cn1c(CCc2ccc(C(=N)N)cc2)nc2cc(N(Cc3ccccc3)C(=O)CCCNC(=N)N)ccc21 [Example 39, N-{2-[2-(4-Amidinophenyl)-ethyl]-1-methyl-benzimidazol-5-yl}-N-benzyl-[4-guanidino-butanoic acid amide]-dihydrochloride] | 77
6 | Cn1c(CCc2ccc(C(=N)N)cc2)nc2cc(N(Cc3ccc4ccccc4c3)C(=O)CCC3CCN(Cc4ccccc4)CC3)ccc21 [Example 50] | 72
7 | CN(C(=O)CCc1ccc(C(=N)N)cc1)c1ccc2c(c1)nc(CCc1ccc(C(=N)N)cc1)n2C [Example 1, N-{2-[2-(4-Amidinophenyl)-ethyl]-1-methyl-benzimidazol-5-yl}-N-methyl-[3-(4-amidinophenyl)-propionamide]dihydrochloride] | 64
8 | Cn1c(CCc2ccc(C(=N)N)cc2)nc2cc(N(Cc3cccc4ccccc34)C(=O)CCCCCN)ccc21 [Example 31, N-{2-[2-(4-Amidinophenyl)-ethyl]-1-methyl-benzimidazol-5-yl}-N-( - naphthylmethyl)-[6-amino-hexanoic acid amide]-dihydrochloride] | 30
9 | CN(C)CCOCC(=O)N(Cc1cccc2ccccc12)c1ccc2c(c1)nc(CCc1ccc(C(=N)N)cc1)n2C [Example 59, N-{2-[2-(4-Amidinophenyl)-ethyl]-1-methyl-benzimidazol-5-yl}-N-(α-naphthylmethyl)-[2-(2-dimethylaminoethoxy)-acetamide]-dihydrochloride] | 66
10 | Cn1c(CCc2ccc(C(=N)N)cc2)nc2cc(N(Cc3cccc4ccccc34)C(=O)CNCc3ccc(F)cc3)ccc21 [Example 61, N-{2-[2-(4-Amidinophenyl)-ethyl]-1-methyl-benzimidazol-5-yl}-N-( - naphthylmethyl)-[2-(4-fluorobenzylamino)-acetamide]-dihydrochloride] | 39
11 | Cn1c(CCc2ccc(C(=N)N)cc2)nc2cc(N(Cc3cccc4ccccc34)C(=O)CNCc3cccc(C(=N)N)c3)ccc21 [Example 46, N-{2-[2-(4-Amidinophenyl)-ethyl]-1-methyl-benzimidazol-5-yl}-N-( - naphthylmethyl)-[2-(3-amidinobenzylamino)-acetamide]-trihydrochloride] | 27
12 | N-{2-[2-(4-Amidinophenyl)-ethyl]-1- methyl-benzimidazol-5-yl}-N-( - naphthylmethyl)-[2-(1-pyridin-2-yl- piperazin-4-yl)-acetamide]-trihydro- chloride [Example 79] | 20.1

More lines, now with the values ahead:

Row | IC50 [nM] | Compound
13 | 26 | COc1ccc(CNCC(=O)N(Cc2ccc3ccccc3c2)c2ccc3c(c2)nc(CCc2ccc(C(=N)N)cc2)n3C)cc1 [Example 57, N-{2-[2-(4-Amidinophenyl)-ethyl]-1-methyl-benzimidazol-5-yl}-N-(β-naphthylmethyl)-[4-methoxybenzylamino-acetamide]-dihydrochloride]
14 | 15.9 | CCOC(=O)C1CCN(CC(=O)N(Cc2cccc3ccccc23)c2ccc3c(c2)nc(CCc2ccc(C(=N)N)cc2)n3C)CC1 [Example 71, N-{2-[2-(4-Amidinophenyl)-ethyl]-1-methyl-benzimidazol-5-yl}-N-( - naphthylmethyl)-[2-(4-ethylcarboxylate-4-piperidin-1-yl)-acetamide]-dihydrochloride]
15 | 13 | Cn1c(CCc2ccc(C(=N)N)cc2)nc2cc(N(Cc3cccc4ccccc34)C(=O)CNCc3ccccc3[N+](=O)[O-])ccc21 [Example 49, N-{2-[2-(4-Amidinophenyl)-ethyl]-1-methyl-benzimidazol-5-yl}-N-( - naphthylmethyl)-[2-(2-nitrobenzylamino)-acctamide]-dihydrochloride]
16 | 16 | Cn1c(CCc2ccc(C(=N)N)cc2)nc2cc(N(Cc3cccc4ccccc34)C(=O)CNCc3cccc(C(=N)N)c3)ccc21 [Example 8, N-{2-[2-(4-Amidinophenyl)-ethyl]-1-methylbenzimidazol-5-yl}-N-(α-naphthylmethyl)-[3-amidinobenzylaminoacetamide]-trihydrochloride]
17 | 21.3 | CN(C)CCCNCC(=O)N(Cc1cccc2ccccc12)c1ccc2c(c1)nc(CCc1ccc(C(=N)N)cc1)n2C [Example 78, N-{2-[2-(4-Amidinophenyl)-ethyl]-1-methyl-benzimidazol-5-yl}-N-(α-naphthylmethyl)-[2-(N-(3-dimethylaminopropyl)-amino)-acetamide]-trihydrochloride]
18 | 22 | CN(C)CCNCC(=O)N(Cc1cccc2ccccc12)c1ccc2c(c1)nc(CCc1ccc(C(=N)N)cc1)n2C [Example 76]
19 | 13.1 | Cn1c(CCc2ccc(C(=N)N)cc2)nc2cc(N(Cc3ccc(N)cc3)C(=O)CNCc3ccc(N)cc3)ccc21 [Example 73, N-{2-[2-(4-Amidinophenyl)-ethyl]-1-methyl-benzimidazol-5-yl}-N-(4-aminobenzyl)-[2-(4-aminobenzylamino)-acetamide]-dihydrochloride]
20 | 3.9 | Cn1c(CCc2ccc(C(=N)N)cc2)nc2cc(N(Cc3cccc4ccccc34)C(=O)CN3CCC(Cc4ccccc4)CC3)ccc21 [Example 70, N-{2-[2-(4-Amidinophenyl)-ethyl]-1-methyl-benzimidazol-5-yl}-N-( - naphthylmethyl)-[2-(4-benzyl-4-piperidin-1-yl)-acetamide]-dihydro-chloride]
21 | 12 | Cn1c(CCc2ccc(C(=N)N)cc2)nc2cc(N(Cc3cccc4ccccc34)C(=O)CNCc3ccc(-c4ccccc4)cc3)ccc21 [Example 45, N-{2-[2-(4-Amidinophenyl)-ethyl]-1-methyl-benzimidazol-5-yl}-N-( - naphthylmethyl)-[2-(4-phenylbenzylamino)-acetamide]-dihydrochloride]
22 | 14 | Cn1c(CCc2ccc(C(=N)N)cc2)nc2cc(N(Cc3cccc4ccccc34)C(=O)CCC3CCN(Cc4ccccc4)CC3)ccc21 [Example 35, N-{2-[2-(4-Amidinophenyl)-ethyl]-1-methyl-benzimidazol-5-yl}-N-( - naphthylmethyl)-[3-(1-benzyl-piperidin-4-yl)-propionamide]-dihydro-chloride]
23 | 10 | Cn1c(CCc2ccc(C(=N)N)cc2)nc2cc(N(Cc3cccc4ccccc34)C(=O)CNCc3cccc(N)c3)ccc21 [Example 28, N-{2-[2-(4-Amidinophenyl)-ethyl]-1-methyl-benzimidazol-5-yl}-N-( - naphthylmethy)-[3-aminobenzylamino-acetamide]-trihydrochloride]
24 | 16 | Cn1c(CCc2ccc(C(=N)N)cc2)nc2cc(N(CCC(c3ccccc3)c3ccccc3)C(=O)CCc3ccc(C(=N)N)cc3)ccc21 [Example 10, N-{2-[2-(4-Amidinophenyl)-ethyl]-1-methyl-benzimidazol-5-yl}-N-(3,3-diphenylpropyl)-[3-(4-amidinophenyl)-propionamide]-dihydrochloride]
25 | 12 | CN(CC(=O)N(Cc1cccc2ccccc12)c1ccc2c(c1)nc(CCc1ccc(C(=N)N)cc1)n2C)Cc1cccc(C(=N)N)c1 [Example 18, N-{2-[2-(4-Amidinophenyl)-ethyl-1-methyl-benzimidazol-5-yl}-N-(- naphthylmethylamino)-N-methyl-N-[3-amidinobenzyl]-acetamide-trihydrochloride]
26 | 27 | CCN(CC)CC(=O)N(Cc1cccc2ccccc12)c1ccc2c(c1)nc(CCc1ccc(C(=N)N)cc1)n2C [Example 66, N-{2-[2-(4-Amidinophenyl)-ethyl]-1-methyl-benzimidazol-5-yl}-N-( - naphthylmethyl)-[2-diethylaminoacetamide]-dihydrochloride]
27 | 12 | Cn1c(CCc2ccc(C(=N)N)cc2)nc2cc(N(Cc3cccc4ccccc34)C(=O)CCCc3ccc(N)cc3)ccc21 [Example 47, N-{2-[2-(4-Amidinophenyl)-ethyl]-1-methyl-benzimidazol-5-yl}-N-( - naphthylmethyl)-[4-(4-aminophenyl)-butyroamide]-dihydrochloride]
